# Patent publication US20260347373A1, “HETEROCYCLIC COMPOUNDS, COMPOSITIONS THEREOF, AND METHODS OF TREATMENT THEREWITH” (BeOne Medicines I GmbH, priority 2023, published 2026)
# Experiments:
# WT KRAS = WT KRAS (Homo sapiens, UniProt P01116); test: KRAS WT Probe Displacement Assay (TR-FRET, GDP-loaded); type: binding; details: KRAS WT, read-out: KRAS^WT Probe Displacement Assay IC50
# Text: (§1) The synthetic routes of probe 1 and 2, which have been disclosed in PCT/CN2022/070676, are hereby incorporated herein.
# KRAS G12D = KRAS G12D (Homo sapiens, UniProt P01116, G12D); test: KRAS G12D Probe Displacement Assay (TR-FRET, GDP-loaded); type: binding; details: KRAS G12D, read-out: KRAS^G12D Probe Displacement Assay IC50
# Chain of KRAS G12D (P01116 1-188 isoform P01116-2 G12D): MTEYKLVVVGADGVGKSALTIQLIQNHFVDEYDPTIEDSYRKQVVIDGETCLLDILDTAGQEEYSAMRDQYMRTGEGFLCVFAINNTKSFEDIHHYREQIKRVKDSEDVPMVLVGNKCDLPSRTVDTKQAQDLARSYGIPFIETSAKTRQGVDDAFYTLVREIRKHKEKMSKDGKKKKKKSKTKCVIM
# Text: as §1
# Chain of WT KRAS (P01116 1-188 isoform P01116-2): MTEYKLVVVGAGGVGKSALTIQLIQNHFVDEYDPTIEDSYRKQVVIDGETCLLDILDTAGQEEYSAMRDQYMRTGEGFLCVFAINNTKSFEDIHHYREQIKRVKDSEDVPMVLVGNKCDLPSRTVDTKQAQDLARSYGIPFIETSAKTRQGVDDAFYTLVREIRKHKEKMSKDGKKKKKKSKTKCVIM
smiles,measurement,setting,value
"Cc1cc(N)cc(-c2nc3c4c(nc(OCC5(CN6CCN(C7CC7)CC6)CC5)nc4c2F)N2C[C@H]4CC[C@H](N4)[C@H]2CCO3)c1C(F)(F)F [Example 192, 3-((6aR,7S,10R)-13-((1-((4-cyclopropylpiperazin-1-yl)methyl)cyclopropyl)methoxy)-1-fluoro-5,6,6a,7,8,9,10,11-octahydro-4-oxa-3,11a,12,14,15-pentaaza-7,10-methanocyclohepta[4,5]cycloocta[1,2,3-de]naphthalen-2-yl)-5-methyl-4-(trifluoromethyl)aniline]",IC50,WT KRAS,0.3 to 3 nM
same,IC50,KRAS G12D,< 0.3 nM
Cc1cc(N)cc(-c2nc3c4c(nc(OCC5(CN6CCc7cnn(C)c7C6)CC5)nc4c2F)N2C[C@H]4CC[C@H](N4)[C@H]2CCO3)c1C(F)(F)F [Example 193],IC50,WT KRAS,3 to 1000 nM
same,IC50,KRAS G12D,< 0.3 nM
"Cc1cc(N)cc(-c2nc3c4c(nc(OC[C@@]5(C)CCCN(C6CCOCC6)C5)nc4c2F)N2C[C@H]4CC[C@H](N4)[C@H]2CCO3)c1C(F)(F)F [Example 195, 3-((6aR,7S,10R)-1-fluoro-13-(((S)-3-methyl-1-(tetrahydro-2H-pyran-4-yl)piperidin-3-yl)methoxy)-5,6,6a,7,8,9,10,11-octahydro-4-oxa-3,11a,12,14,15-pentaaza-7,10-methanocyclohepta[4,5]cycloocta[1,2,3-de]naphthalen-2-yl)-5-methyl-4-(trifluoromethyl)aniline]",IC50,WT KRAS,0.3 to 3 nM
same,IC50,KRAS G12D,< 0.3 nM
"C[C@]1(COc2nc3c4c(nc(-c5cc(N)cc(Cl)c5C(F)(F)F)c(F)c4n2)OCC[C@@H]2[C@@H]4CC[C@H](CN32)N4)CCCN(C2CCOCC2)C1 [Example 196, 3-chloro-5-((6aR,7S,10R)-1-fluoro-13-(((S)-3-methyl-1-(tetrahydro-2H-pyran-4-yl)piperidin-3-yl)methoxy)-5,6,6a,7,8,9,10,11-octahydro-4-oxa-3,11a,12,14,15-pentaaza-7,10-methanocyclopenta[4,5]cycloocta[1,2,3-de]naphthalen-2-yl)-4-(trifluoromethyl)aniline]",IC50,WT KRAS,0.3 to 3 nM
same,IC50,KRAS G12D,< 0.3 nM
"Cc1cc(N)cc(-c2nc3c4c(nc(OC[C@@]5(C)CCCN(C6COC6)C5)nc4c2F)N2C[C@H]4CC[C@H](N4)[C@H]2CCO3)c1C(F)(F)F [Example 197, 3-((6aR,7S,10R)-1-fluoro-13-(((S)-3-methyl-1-(oxetan-3-yl)piperidin-3-yl)methoxy)-5,6,6a,7,8,9,10,11-octahydro-4-oxa-3,11a,12,14,15-pentaaza-7,10-methanocyclohepta[4,5]cycloocta[1,2,3-de]naphthalen-2-yl)-5-methyl-4-(trifluoromethyl)aniline]",IC50,WT KRAS,3 to 1000 nM
same,IC50,KRAS G12D,< 0.3 nM
"Cc1cc(N)cc(-c2nc3c4c(nc(O[C@H]5C[C@@H]6C[C@H]5CN(C)C6)nc4c2F)N2C[C@H]4CC[C@H](N4)[C@H]2CCO3)c1C(F)(F)F [Example 198, 3-((6aR,7S,10R)-1-fluoro-13-(((1S,5S,6S)-3-methyl-3-azabicyclo[3.2.1]octan-6-yl)oxy)-5,6,6a,7,8,9,10,11-octahydro-4-oxa-3,11a,12,14,15-pentaaza-7,10-methanocyclohepta[4,5]cycloocta[1,2,3-de]naphthalen-2-yl)-5-methyl-4-(trifluoromethyl)aniline]",IC50,WT KRAS,3 to 1000 nM
same,IC50,KRAS G12D,< 0.3 nM
"Cc1cc(N)cc(-c2nc3c4c(nc(OC[C@@]56C[C@@H](F)CN5C[C@@]5(CC5(F)F)C6)nc4c2F)N2C[C@H]4CC[C@H](N4)[C@H]2CCO3)c1C(F)(F)F [Example 199, 3-((6aR,7S,10R)-1-fluoro-13-(((1S,6′R,7a′R)-2,2,6′-trifluorodihydro-1′H,3′H-spiro[cyclopropane-1,2′-pyrrolizin]-7a′(5′H)-yl)methoxy)-5,6,6a,7,8,9,10,11-octahydro-4-oxa-3,11a,12,14,15-pentaaza[7,10]methanocyclohepta[4,5]cycloocta[1,2,3-de]naphthalen-2-yl)-5-methyl-4-(trifluoromethyl)aniline]",IC50,WT KRAS,0.3 to 3 nM
same,IC50,KRAS G12D,< 0.3 nM
"Cc1cc(N)cc(-c2nc3c4c(nc(OC[C@@]56CCCN5CC(=C(F)F)C6)nc4c2F)N2C[C@H]4CC[C@H](N4)[C@H]2CCO3)c1C(F)(F)F [Example 200, 3-((6aR,7S,10R)-13-(((S)-2-(difluoromethylene)tetrahydro-1H-pyrrolizin-7a(5H)-yl)methoxy)-1-fluoro-5,6,6a,7,8,9,10,11-octahydro-4-oxa-3,11a,12,14,15-pentaaza-7,10-methanocyclohepta[4,5]cycloocta[1,2,3-de]naphthalen-2-yl)-5-methyl-4-(trifluoromethyl)aniline]",IC50,WT KRAS,3 to 1000 nM
same,IC50,KRAS G12D,< 0.3 nM
"Nc1cc(Cl)c(C(F)(F)F)c(-c2nc3c4c(nc(OC[C@@]56CCCN5CC(=C(F)F)C6)nc4c2F)N2C[C@H]4CC[C@H](N4)[C@H]2CCO3)c1 [Example 201, 3-chloro-5-((6aR,7S,10R)-13-(((S)-2-(difluoromethylene)tetrahydro-1H-pyrrolizin-7a(5H)-yl)methoxy)-1-fluoro-5,6,6a,7,8,9,10,11-octahydro-4-oxa-3,11a,12,14,15-pentaaza-7,10-methanocyclohepta[4,5]cycloocta[1,2,3-de]naphthalen-2-yl)-4-(trifluoromethyl)aniline]",IC50,WT KRAS,0.3 to 3 nM
same,IC50,KRAS G12D,< 0.3 nM
"CCN1CC(F)CC(C)(COc2nc3c4c(nc(-c5cc(N)cc(C)c5C(F)(F)F)c(F)c4n2)OCC[C@@H]2[C@@H]4CC[C@H](CN32)N4)C1 (stereo partly drawn) [Example 202, 3-((6aR,7S,10R)-13-((1-ethyl-5-fluoro-3-methylpiperidin-3-yl)methoxy)-1-fluoro-5,6,6a,7,8,9,10,11-octahydro-4-oxa-3,11a,12,14,15-pentaaza-7,10-methanocyclohepta[4,5]cycloocta[1,2,3-de]naphthalen-2-yl)-5-methyl-4-(trifluoromethyl)aniline]",IC50,WT KRAS,3 to 1000 nM
same,IC50,KRAS G12D,< 0.3 nM
"Nc1cc(Cl)c(C(F)(F)F)c(-c2nc3c4c(nc(OC[C@@]56C[C@@H](F)CN5CC5(CC5)C6)nc4c2F)N2C[C@H]4CC[C@H](N4)[C@H]2CCO3)c1 [Example 207, 3-chloro-5-((6aR,7S,10R)-1-fluoro-13-(((6′R,7a′R)-6′-fluorodihydro-1′H,3′H-spiro[cyclopropane-1,2′-pyrrolizin]-7a′(5′H)-yl)methoxy)-5,6,6a,7,8,9,10,11-octahydro-4-oxa-3,11a,12,14,15-pentaaza[7,10]methanocyclohepta[4,5]cycloocta[1,2,3-de]naphthalen-2-yl)-4-(trifluoromethyl)aniline]",IC50,WT KRAS,0.3 to 3 nM
same,IC50,KRAS G12D,< 0.3 nM
"C=C1CN2C[C@H](F)C[C@@]2(COc2nc3c4c(nc(-c5cc(N)cc(C)c5C(F)(F)F)c(F)c4n2)OCC[C@@H]2[C@@H]4CC[C@H](CN32)N4)C1 [Example 208, 3-((6aR,7S,10R)-1-fluoro-13-(((2R,7aR)-2-fluoro-6-methylenetetrahydro-1H-pyrrolizin-7a(5H)-yl)methoxy)-5,6,6a,7,8,9,10,11-octahydro-4-oxa-3,11a,12,14,15-pentaaza-7,10-methanocyclohepta[4,5]cycloocta[1,2,3-de]naphthalen-2-yl)-5-methyl-4-(trifluoromethyl)aniline]",IC50,WT KRAS,0.3 to 3 nM
same,IC50,KRAS G12D,< 0.3 nM
"C=C1CN2C[C@H](F)C[C@@]2(COc2nc3c4c(nc(-c5cc(N)cc(Cl)c5C(F)(F)F)c(F)c4n2)OCC[C@@H]2[C@@H]4CC[C@H](CN32)N4)C1 [Example 209, 3-chloro-5-((6aR,7S,10R)-1-fluoro-13-(((2R,7aR)-2-fluoro-6-methylenetetrahydro-1H-pyrrolizin-7a(5H)-yl)methoxy)-5,6,6a,7,8,9,10,11-octahydro-4-oxa-3,11a,12,14,15-pentaaza-7,10-methanocyclohepta[4,5]cycloocta[1,2,3-de]naphthalene-2-yl)-4-(trifluoromethyl)aniline]",IC50,WT KRAS,3 to 1000 nM
same,IC50,KRAS G12D,< 0.3 nM
"C=C1CN2C[C@H](F)C[C@]2(COc2nc3c4c(nc(-c5cc(N)cc(C)c5C(F)(F)F)c(F)c4n2)OCC[C@@H]2[C@@H]4CC[C@H](CN32)N4)C1 [Example 210, 3-((6aR,7S,10R)-1-fluoro-13-(((2R,7aS)-2-fluoro-6-methylenetetrahydro-1H-pyrrolizin-7a(5H)-yl)methoxy)-5,6,6a,7,8,9,10,11-octahydro-4-oxa-3,11a,12,14,15-pentaaza-7,10-methanocyclohepta[4,5]cycloocta[1,2,3-de]naphthalen-2-yl)-5-methyl-4-(trifluoromethyl)aniline]",IC50,WT KRAS,3 to 1000 nM
same,IC50,KRAS G12D,< 0.3 nM
"C=C1CN2C[C@H](F)C[C@]2(COc2nc3c4c(nc(-c5cc(N)cc(Cl)c5C(F)(F)F)c(F)c4n2)OCC[C@@H]2[C@@H]4CC[C@H](CN32)N4)C1 [Example 211, 3-chloro-5-((6aR,7aS,10R)-1-fluoro-13-(((2R,7aS)-2-fluoro-6-methylenetetrahydro-1H-pyrrolizin-7a(5H)-yl)methoxy)-5,6,6a,7,8,9,10,11-octahydro-4-oxa-3,11a,12,14,15-pentaaza-7,10-methanocyclohepta[4,5]cycloocta[1,2,3-de]naphthalen-2-yl)-4-(trifluoromethyl)aniline]",IC50,WT KRAS,3 to 1000 nM
same,IC50,KRAS G12D,< 0.3 nM
"C=C1CN2C[C@H]3C[C@H]3[C@]2(COc2nc3c4c(nc(-c5cc(N)cc(C)c5C(F)(F)F)c(F)c4n2)OCC[C@@H]2[C@@H]4CC[C@H](CN32)N4)C1 [Example 212, 3-((6aR,7S,10R)-1-fluoro-13-(((1aS,6bR)-5-methylenehexahydrocyclopropa[a]pyrrolizin-6a(4H)-yl)methoxy)-5,6,6a,7,8,9,10,11-octahydro-4-oxa-3,11a,12,14,15-pentaaza-7,10-methanocyclohepta[4,5]cycloocta[1,2,3-de]naphthalen-2-yl)-5-methyl-4-(trifluoromethyl)aniline]",IC50,WT KRAS,3 to 1000 nM
same,IC50,KRAS G12D,< 0.3 nM
